Reference: patent publication US20240245694A1, “Tricyclic Compounds and their Uses” (Novartis AG, priority 2022, published 2024)

Columns and labels:
[1] = biological target: WRN helicase (core helicase motif aa N517-P1238) (Homo sapiens (Human), UniProt Q14191); assay: WRN ATPase assay (ADP-Glo), DNA dependent ATP hydrolysis; assay type: biochemical; details: 3 hours pre-incubation, 300 micromolar ATP, FLAP26 ssDNA; geometric means of at least 2 determinations
Description: An ATPase assay was set up to measure the DNA dependent ATP hydrolysis activity of WRN helicase. This assay was used also to assess the inhibition properties of compounds of the invention on DNA dependent WRN ATPase activity.
The core helicase motif of the WRN protein (aa N517-P1238) was produced for this assay (protein production as described above). A 45 oligonucleotide sequence called “FLAP26” as described by Brosh et al., 2009, DOI: 10.1074/jbc.M111446200 ([…]; SEQ ID NO: 2) was purchased from IDT (Integrated DNA Technologies, Leuven, Belgium) and used as single strand DNA substrate. The ADP-Glo assay kit (Promega, Madison, WI) allowing the quantification of ADP produced in ATP hydrolysis reactions was used for setting up this assay. Time course experiments were first performed in order to determine the best enzymatic assay conditions (including buffer conditions, reaction time and concentrations of protein, ATP and DNA substrates). A typical reaction consists of 10 nM WRN protein, 0.2 nM FLAP26, and 300 micromolar ATP in the following assay buffer: 30 mM Tris pH7.5, 2 mM MgCl2, 0.02% BSA, 50 mM NaCl, 0.1% pluronic F127 prepared in DNAse free water.
To evaluate the inhibition properties of compounds of the invention, serial dilutions were prepared in DMSO (10 half log dilutions from a 10 mM DMSO solution). 50 nanoliters of each concentration was pre-incubated for 3 hours in a 384 small volume assay plate (Greiner #784075) with 2.5 microliters of a 20 nM WRN helicase protein in assay buffer with 600 micromolar ATP. Control wells were included with a “high control” (no inhibition), containing DMSO with no test compound, and “low controls” (maximal inhibition), containing buffer without protein. The reaction was started by addition of 2.5 microliters of FLAP26 at 0.4 nM and incubated for 30 minutes at room temperature. The reaction was stopped with the addition of 5 microliters of the first ADP-Glo reagent and incubated for one hour to remove the excess amount of ATP. Afterwards, 10 microliters of ATP detection reagent was added and incubated for an additional hour before reading. Luminescence output was recorded using Tecan 1000 reader, with 5 minutes delay before reading. Each concentration of compound was tested in duplicates in the assay plate.
Data analysis was carried out using an in-house developed software (Novartis Helios software application, Novartis Institutes for BioMedical Research, unpublished) using the methods described by Formenko et al., 2006, DOI: 10.1016/j.cmpb.2006.01.008. Following normalization of activity values for the wells to % inhibition (% inhibition=[(high control-sample)/(high control-low control)]×100), IC50 fitting was carried out from the duplicate determinations present on each plate according to [4]. Data analysis can also be carried out using commercially available software designed to derive IC50 values using 4-parameter fits (e.g. GraphPad Prism, XL fit). The reported IC50 values are the geometrical means of at least 2 independent replicates.

[2] = system: SW48 cells; assay: Proliferation assay SW48 (CellTiterGlo, 96 hours); assay type: cell-based; details: Homo sapiens
Description: (§1) The colon carcinoma cell lines SW48 (RRID: CVCL_1724), HCT 116 (RRID: CVCL_0291) and SNU-407 (RRID: CVCL_5058) were obtained from ATCC. The WRN-knockdown insensitive colon carcinoma cell line DLD-1 (RRID: CVCL_0248) was obtained from the Korean Cell Line Bank (KCLB), and used to generate a derivative in which the endogenous WRN gene copies were knocked out by CRISPR-mediated editing using standard CRISPR methods. The resulting cell line, DLD1-WRN-KO, was used to assess potential off-target compound effects.
(§2) SW48, SNU-407 and DLD1-WRN-KO cells were cultured in growth medium composed of RPMI-1640 (Amimed Cat #1-41F22-1), 2 mM L-Glutamine (Amimed Cat #5-10K50), 10 mM HEPES (Gibco Cat #15630-056), 1 mM sodium pyruvate (Amimed Cat #5-60F00-H), 1× Penicillin-Streptomycin (Amimed Cat #4-01F00-H) and 10% fetal calf serum (Amimed Cat #2-01F30-G, Lot #LB11566P). HCT 116 cells were cultured in growth medium composed of McCoys 5A (Amimed catalog #1-18F01-1), 2 mM L-Glutamine (Amimed Cat #5-10K50), 1× Penicillin-Streptomycin (Amimed Cat #4-01F00-H) and 10% fetal calf serum (Amimed Cat #2-01F30-G, Lot #LB11566P). All cells were maintained at 37° C. in a humidified 5% CO2 incubator.
(§3) Following filtration through a Steriflip-NY 20 μm filter (Millipore Cat #SCNY00020), trypsinized cells were seeded in 100 microliters growth medium at 2′000 (SW48) or 1′500 (SNU-407, DLD1-WRN-KO, HCT 116) cells/well into white, clear-bottom 96-well plates (Costar Cat #3903). Three replicate plates were prepared for each compound treatment condition. In addition, one plate (termed “day 0”) was prepared to quantify the number of viable cells at the time of compound addition. Following overnight incubation at 37° C. in a humidified 5% CO2 atmosphere, eight 3-fold serial dilutions of a given compound stock (obtained at a concentration of 10 mM in DMSO and stored at 4° C.) were dispensed directly into each of the triplicate assay plates using a HP 300D non-contact Digital Dispenser (TECAN). The final concentration of DMSO was normalized to 0.1% in all wells. 96 hours after compound addition, cellular ATP levels as a surrogate for cell viability was assessed following addition of 50 microliters CellTiterGlo (Promega Cat #G7573) reagent and luminescence quantification on a MPLEX multi-mode plate-reader (TECAN) following a 10 minute incubation at room temperature. The number of viable cells in the “day 0” plate were quantified identically on the day of compound addition.
(§4) For data analysis, the assay background signal that was determined in wells containing medium, but no cells, was subtracted from all other data points prior to further calculations. The extent of growth inhibition and potential cell kill was assessed by comparing the ATP levels (measured using CellTiterGlo, Promega) in compound-treated cells with those present at the time of compound addition. To this end, the following conditional concept was programmatically applied in HELIOS, an in-house software applying a multi-step decision tree to arrive at optimal concentration response curve fits (Gubler et al, SLAS DOI: 10.1177/2472555217752140) to calculate % growth (% G) for each compound-treated well: % G=(T−V0)/V0))*100 when T<V0, and % G=(T−V0)/(V−V0)))*100 when T>V0, where V0 is the viability level at time of compound addition, while V and T represent vehicle-control and compound-treated viability levels, respectively, at the end of the compound incubation. 100%, 0% and −100% signify absence of growth inhibition, growth stasis, and complete cell kill, respectively. Compound concentrations leading to half-maximal growth inhibition (G150) and residual cell viability at the highest tested compound concentration (Data (cmax), expressed in percent) were routinely calculated. Data analysis can also be carried out using commercially available software designed to derive IC50 values using 4-parameter fits (e.g. GraphPad Prism, XL fit). […]

[3] = system: DLD1-WRN-KO cells; assay: Proliferation assay DLD1-WRN-KO (CellTiterGlo, 96 hours), off-target effects; assay type: cell-based; details: Homo sapiens
Description: as §1, §2, §3, §4

WRN helicase (core helicase motif aa N517-P1238), sequence (Q14191 517-1238): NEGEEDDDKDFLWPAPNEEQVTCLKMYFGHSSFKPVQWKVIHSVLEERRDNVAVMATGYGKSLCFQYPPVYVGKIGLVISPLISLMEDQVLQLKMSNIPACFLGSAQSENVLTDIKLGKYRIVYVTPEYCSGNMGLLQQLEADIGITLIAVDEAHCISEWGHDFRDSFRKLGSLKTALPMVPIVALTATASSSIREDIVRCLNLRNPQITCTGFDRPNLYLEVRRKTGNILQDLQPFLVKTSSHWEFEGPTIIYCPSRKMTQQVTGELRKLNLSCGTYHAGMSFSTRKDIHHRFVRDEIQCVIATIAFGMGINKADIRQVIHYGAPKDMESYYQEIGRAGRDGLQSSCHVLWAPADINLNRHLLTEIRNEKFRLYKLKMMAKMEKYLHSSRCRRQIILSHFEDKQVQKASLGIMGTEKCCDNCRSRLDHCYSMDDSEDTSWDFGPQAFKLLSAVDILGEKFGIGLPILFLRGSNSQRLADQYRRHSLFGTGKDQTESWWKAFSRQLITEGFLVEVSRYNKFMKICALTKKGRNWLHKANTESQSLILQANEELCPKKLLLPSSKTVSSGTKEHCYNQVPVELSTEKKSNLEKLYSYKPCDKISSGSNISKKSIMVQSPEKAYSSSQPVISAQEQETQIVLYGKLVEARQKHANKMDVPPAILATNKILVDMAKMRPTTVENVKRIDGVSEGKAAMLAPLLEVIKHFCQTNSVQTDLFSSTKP

SMILES: C[C@@H]1C[C@@H](C(=O)Nc2ccc(C(F)(F)F)cc2Cl)n2c1c(N1CCN(C(=O)c3nccc(Cl)c3O)CC1)c(=O)n1nc(N3CCOCC3)nc21 [Example 1D, (7R,9S)-6-(4-(4-chloro-3-hydroxypicolinoyl)piperazin-1-yl)-N-(2-chloro-4-(trifluoromethyl)phenyl)-7-methyl-2-morpholino-5-oxo-5,7,8,9-tetrahydropyrrolo[1,2-c][1,2,4]triazolo[1,5-a]pyrimidine-9-carboxamide]
- IC50 [1]: 3 µM
- GI50 [2]: 5 µM
- GI50 [3]: > 10 µM

SMILES: CC(=O)N1CCN(c2c3n(c4nc(C5=CCOCC5)nn4c2=O)C(C(=O)Nc2ccc(C(F)(F)F)cc2)CC3)CC1 (racemic) [Example 24, rac-6-(4-acetylpiperazin-1-yl)-2-(3,6-dihydro-2H-pyran-4-yl)-5-oxo-N-(4-(trifluoromethyl)phenyl)-5,7,8,9-tetrahydropyrrolo[1,2-c][1,2,4]triazolo[1,5-a]pyrimidine-9-carboxamide]
- IC50 [1]: 2 µM
- GI50 [2]: 4 µM
- GI50 [3]: > 10 µM

SMILES: Cc1ncnc(C(=O)N2CCN(c3c4n(c5nc(C6=CCOCC6)nn5c3=O)[C@H](C(=O)Nc3ccc(C(F)(F)F)cc3Cl)C[C@H]4C)C[C@H]2C)c1O [Example 18C, (7R,9S)—N-(2-chloro-4-(trifluoromethyl)phenyl)-2-(3,6-dihydro-2H-pyran-4-yl)-6-((R)-4-(5-hydroxy-6-methylpyrimidine-4-carbonyl)-3-methylpiperazin-1-yl)-7-methyl-5-oxo-5,7,8,9-tetrahydropyrrolo[1,2-c][1,2,4]triazolo[1,5-a]pyrimidine-9-carboxamide]
- IC50 [1]: > 10 µM
- GI50 [2]: > 10 µM
- GI50 [3]: > 10 µM

SMILES: C[C@@H]1C[C@H](C(=O)Nc2ccc(C(F)(F)F)cc2Cl)n2c1c(N1CCN(C(=O)c3ncc4c(c3O)OCC4)CC1)c(=O)n1nc(C3=CCOCC3)nc21 [Example 5A, (7R,9R)—N-(2-chloro-4-(trifluoromethyl)phenyl)-2-(3,6-dihydro-2H-pyran-4-yl)-6-(4-(7-hydroxy-2,3-dihydrofuro[3,2-c]pyridine-6-carbonyl)piperazin-1-yl)-7-methyl-5-oxo-5,7,8,9-tetrahydropyrrolo[1,2-c][1,2,4]triazolo[1,5-a]pyrimidine-9-carboxamide]
- IC50 [1]: 0.02 µM
- GI50 [2]: 0.03 µM
- GI50 [3]: > 10 µM

SMILES: Cc1cc(C(F)(F)F)ccc1NC(=O)[C@H]1C[C@@H](C)c2c(N3CCN(C(=O)c4ncccc4O)CC3)c(=O)n3nc(C4=CCOCC4)nc3n21 [Example 15A, (7R,9R)-2-(3,6-dihydro-2H-pyran-4-yl)-6-(4-(3-hydroxypicolinoyl)piperazin-1-yl)-7-methyl-N-(2-methyl-4-(trifluoromethyl)phenyl)-5-oxo-5,7,8,9-tetrahydropyrrolo[1,2-c][1,2,4]triazolo[1,5-a]pyrimidine-9-carboxamide]
- IC50 [1]: 0.05 µM
- GI50 [2]: 0.03 µM
- GI50 [3]: > 10 µM

SMILES: C[C@@H]1C[C@H](C(=O)Nc2ccc(C(F)(F)F)cc2Cl)n2c1c(N1CCN(C(=O)c3nccc(Cl)c3O)CC1)c(=O)n1nc(N3CCOCC3)nc21 [Example 1A, (7R,9R)-6-(4-(4-chloro-3-hydroxypicolinoyl)piperazin-1-yl)-N-(2-chloro-4-(trifluoromethyl)phenyl)-7-methyl-2-morpholino-5-oxo-5,7,8,9-tetrahydropyrrolo[1,2-c][1,2,4]triazolo[1,5-a]pyrimidine-9-carboxamide]
- IC50 [1]: 0.02 µM
- GI50 [2]: 0.04 µM
- GI50 [3]: > 10 µM

SMILES: C[C@H]1C[C@@H](C(=O)Nc2ccc(C(F)(F)F)cc2Cl)n2c1c(N1CCN(C(=O)c3nccc(F)c3O)CC1)c(=O)n1nc(C3=CCOCC3)nc21 [Example 6B, (7S,9S)—N-(2-chloro-4-(trifluoromethyl)phenyl)-2-(3,6-dihydro-2H-pyran-4-yl)-6-(4-(4-fluoro-3-hydroxypicolinoyl)piperazin-1-yl)-7-methyl-5-oxo-5,7,8,9-tetrahydropyrrolo[1,2-c][1,2,4]triazolo[1,5-a]pyrimidine-9-carboxamide]
- IC50 [1]: 2 µM
- GI50 [2]: 3 µM
- GI50 [3]: > 10 µM

SMILES: O=C(Nc1ccc(C(F)(F)F)cc1)[C@@H]1CCc2c(N3CCN(C(=O)c4ncccc4O)CC3)c(=O)n3nc(C4=CCOCC4)nc3n21 [Example 23B, (S)-2-(3,6-dihydro-2H-pyran-4-yl)-6-(4-(3-hydroxypicolinoyl)piperazin-1-yl)-5-oxo-N-(4-(trifluoromethyl)phenyl)-5,7,8,9-tetrahydropyrrolo[1,2-c][1,2,4]triazolo[1,5-a]pyrimidine-9-carboxamide]
- IC50 [1]: 69 µM
- GI50 [2]: > 10 µM
- GI50 [3]: > 10 µM

SMILES: Cc1ncnc(C(=O)N2CCN(c3c4n(c5nc(C6=CCOCC6)nn5c3=O)[C@H](C(=O)Nc3ccc(C(F)(F)F)nc3Cl)C[C@@H]4C)CC2)c1O [Example 4B, (7S,9S)—N-(2-chloro-6-(trifluoromethyl)pyridin-3-yl)-2-(3,6-dihydro-2H-pyran-4-yl)-6-(4-(5-hydroxy-6-methylpyrimidine-4-carbonyl)piperazin-1-yl)-7-methyl-5-oxo-5,7,8,9-tetrahydropyrrolo[1,2-c][1,2,4]triazolo[1,5-a]pyrimidine-9-carboxamide]
- IC50 [1]: 9 µM
- GI50 [2]: 6 µM
- GI50 [3]: > 10 µM
